Data published in patent publication US10786522B2, “Compositions that include anthocyanidins and methods of use” (Maqui NewLife S.A., priority 2009, dated 2020).

How the values were obtained:
PPAR-γ = experiment: PPAR-γ-Luc reporter assay in HL-60 cells; assay type: cell-based, Human; details: control substances, 12 h, concentration not given
Experimental: We examined the effect of delphindin-rich anthocyanidins on PPAR-γ activation. HL-60 cells in IMDM medium were transfected with the reporter vectors PPAR-γ-Luc (5 μg) (Panomics) and TK-RL (1 μg) (Promega) using Fugene 6 reagent (Roche), and cultured for 24 hr. Then, the cells were incubated for 12 h in 0.175, 1.75, or 17.5 μg/ml of delphindin-rich anthocyanidins, phorbol myristate acetate (PMA), 15-deoxi-d 12,14-prostaglandin J2 (PGj2), or tumor necrosis factor alpha (TNFα) as controls. Luciferase activity was measured using the Dual-Luciferase Reporter Assay kit (DLR) from Promega in a luminometer (Luminoskan).

NF-κB = NF-κB luciferase reporter assay in HL-60 cells; assay type: cell-based, Human; details: positive control, concentration not given
Experimental: We examined the effect of anthocyanidins on NF-κB activation using a luciferase reporter assay in HL-60 cells (Human promyelocytic leukemia cells). HL-60 cells in IMDM medium were transfected with a reporter vector with an NF-kB consensus sequence located in the luciferase promoter for 24 h at 37° C., then were incubated with delphinidin-rich anthocyanidins diluted 1:500000, 1:50000, and 1:5000. PMA was used as positive control. Luciferase activity was measured with a Dual luciferase assay kit (Promega) according to the supplier's instructions. A vector that constitutively expressed renilla luciferase was used to standardize the assay.

CCCCCCCCCCCCCC(=O)O[C@@H]1[C@@H](C)[C@@]2(O)[C@@H](C=C(CO)C[C@]3(O)C(=O)C(C)=C[C@@H]23)[C@@H]2C(C)(C)[C@]12OC(C)=O [PMA, phorbol myristate acetate]
Average percentage activity of control [PPAR-γ-Luc/TK-RL] ± SD (PPAR-γ): 527.5 ± 536.3% | Average percentage activity of control [pNF-κB/pRL-luc] (NF-κB): 50%
